System: MG-63 cells
Assay: Transmission electron microscopy of autophagic vacuoles
Type: cell-based, human
Conditions: control MG-63 cells; cisplatin 20 μM, 24 hr
Protocol: FIG. 3. GFRα1-induced autophagy enhances the chemoresistance of osteosarcoma cells induced by cisplatin. (a) Control and GFRα1-deficient MG-63 cells were transiently transfected with a mRFP-GFP tandem fluorescent-tagged LC3 (mRFP-GFP-LC3) vector and then treated with cisplatin (20μM) for 24 hr. Left, representative images of RFP-LC3 and GFP-LC3 puncta. Scale bar, 20 μm. Right, quantitative analysis of the number of yellow puncta and the number of RFP-LC3 puncta in the combined images. The values are represented as a mean±s.d.m. (n=3). ** denotes p<0.05 by t-test. (b) Control and GFRα1-deficient MG-63 cells were treated with cisplatin (20 μM) for 24 hr and then stained with acridine orange. […] Bottom, quantitative analysis of the number of AVOs. […] (c) Control and GFRα1-deficient MG-63 cells were treated with cisplatin (20 μM) for 24 hr and then analyzed by TEM. Top, representative images of autophagic vacuoles (yellow arrows) detected after cisplatin treatment in control MG-63 cells. […] Bottom, quantitative analysis of the number of autophagic vacuoles. […] (e) Quantitative analysis of the number of yellow puncta and the number of RFP-LC3 puncta in control and GFRα1-overexpressing MG-63 cells. […] Bottom, quantitative analysis of the number of AVOs. […] (h) Control and GFRα1-overexpressing MG-63 cells were treated with cisplatin (20 μM) for 24 hr and then analyzed by TEM. […]

N.N.[Cl][Pt][Cl] [cisplatin, Cis-Diamineplatinum(II) dichloride]
number of autophagic vacuoles per cell: markedly increased
